Experimental data taken from US9415018B2, “Methods for improving muscle strength” (Washington University, priority 2012, dated 2016).

Legend:
[1] = system: mdx mouse diaphragm muscle; assay: Fluorescence staining of nanoparticle and rapamycin deposition in mdx diaphragm; assay type: in vivo; settings: mdx mouse treated with rapamycin-loaded nanoparticles
From the text: The nanoparticles were rhodamine-labeled, and the rapamycin was labeled with Cy-7.

[2] = humans; cited from earlier work

CO[C@H]1C[C@@H]2CC[C@@H](C)[C@@](O)(O2)C(=O)C(=O)N2CCCC[C@H]2C(=O)O[C@H]([C@H](C)C[C@@H]2CC[C@@H](O)[C@H](OC)C2)CC(=O)[C@H](C)/C=C(\C)[C@@H](O)[C@@H](OC)C(=O)[C@H](C)C[C@H](C)/C=C/C=C/C=C/1C [rapamycin]
distribution of Cy-7 labeled rapamycin in diaphragm muscle [1]: both punctate and diffuse staining
oral absorption [2]: 18%
